Among the data in the CATMoS acute toxicity set (Mansouri et al. 2021) are GHS category values, retold here.

A short description of this data set: GHS categories as the set defines them, by LD50: 1 up to 5, 2 up to 50, 3 up to 300, 4 up to 2000, 5 above 2000 mg/kg. The conditions noted are these: rat; in vivo; po.
For the compound `O=C(Nc1cc(Cl)c(NC(=O)c2cc3ccccc3c(N=Nc3cc(Cl)ccc3Cl)c2O)cc1Cl)c1cc2ccccc2c(N=Nc2cc(Cl)ccc2Cl)c1O`, the GHS category is on record as 5.

Turning to `CC(C)=CCC(O)C1=CC(=O)c2c(O)ccc(O)c2C1=O` (centres undefined), the GHS category was 4.

The compound `COC(=O)c1cc(Cl)ccc1OC(N)=O` had a GHS category of 5.

In the case of `CO[C@]12CC[C@@]3(C[C@@H]1[C@](C)(O)C(C)(C)C)[C@H]1Cc4ccc(O)c5c4[C@@]3(CCN1CC1CC1)[C@H]2O5`, the GHS category was determined as 4.

Compound `CC1(C)O[C@@H]2C[C@H]3[C@@H]4CCC5=CC(=O)CC[C@]5(C)[C@@]4(F)[C@@H](O)C[C@]3(C)[C@]2(C(=O)CCl)O1` displayed a GHS category of 5.

On to `C=CCCCCCCCCC(=O)NCC(=O)O`, for which the GHS category is recorded as 5.

`CCCCCCCCCCCCCCCCCCCCCC(=O)O` came in with a GHS category of 5.

Take `NC1=NCC2c3ccccc3Cc3ccccc3N12` (centres undefined): the GHS category was found to be 4.

Regarding `O=C1Cc2cccc(F)c2N1`, the GHS category amounted to 4.

`CC(C)=CCC(C#N)(CCN1CCCCC1)c1cccc2ccccc12` (centres undefined) returned a GHS category of 4.

In the case of `CCOC(=O)C1=C(COCCN2C(=O)c3ccccc3C2=O)NC(C)=C(C(=O)OC)C1c1ccccc1Cl` (centres undefined), the GHS category stood at 5.

On to `COc1cc2c(cc1OC)-c1c(C)c3ccc(OC)c(OC)c3c[n+]1CC2`, for which the GHS category is recorded as 4.

As to `CCOc1ccccc1C(=N)N`, the GHS category is 4.

`CCCCCC1C(=O)CCC1CC(C)=O` (centres undefined): the GHS category is reported as 5.

Turning to `CCOc1cc(N)c(Cl)cc1C(=O)NCC1CN(Cc2ccc(F)cc2)CCO1` (centres undefined), the GHS category worked out at 5.

In turn, `Cn1nnnc1SCCCC(=O)c1cccs1` came in with a GHS category of 4.

Consider `CCc1cc(C)cc(CC)c1-c1c(OC(=O)C(C)(C)C)n2n(c1=O)CCOCC2`, for which the GHS category was 5.

`Clc1ccc(C2=NCOCS2)cc1`: the GHS category was determined as 4.

Compound `Cc1cc(C(=O)NCCc2ccc(S(=O)(=O)NC(=O)NN3CCCCCC3)cc2)no1` returned a GHS category of 5.

In the case of `C[C@]12CCC(=O)C[C@@H]1CC[C@@H]1[C@@H]2CC[C@@]2(C)[C@H]1CC[C@]2(C)O`, the GHS category amounted to 5.

Turning to `COC1=C(OC)C(=O)C(CC=C(C)CCC=C(C)CCC=C(C)CCC=C(C)CCC=C(C)CCC=C(C)CCC=C(C)CCC=C(C)CCC=C(C)C)=C(C)C1=O`, the GHS category was 5.

Regarding `O=C1NC(=O)C(c2ccc(O)cc2)(c2ccc(O)cc2)N1`, the GHS category is 5.

The compound `Cc1ccc(O)c(/N=N/c2ccccc2[N+](=O)[O-])c1` showed a GHS category of 5.

`CO[Si](C)(OC)OC` gave a GHS category of 5.

`CC(C)=CCN(CC=C(C)C)CCC(CCN(CC=C(C)C)CC=C(C)C)(C(N)=O)c1cccc2ccccc12` had a GHS category of 4.

Compound `C=C(C)C(=O)NC(C)C` had a GHS category of 5.

Consider `COc1ccc2cc([C@H](C)C(=O)OCCN3CCN(CCOC(=O)[C@@H](C)c4ccc5cc(OC)ccc5c4)CC3)ccc2c1`, for which the GHS category worked out at 5.

For `COCOC1CCCCCCCCCCC1`, the GHS category is recorded as 5.

`O=NNC1=NCCN1Cc1ccc(Cl)nc1` displayed a GHS category of 5.

Compound `OCCCCSc1ccc(Cl)cc1` showed a GHS category of 4.

With `C[C@@H]1CO[C@@](Cn2cncn2)(c2cc3cc(Cl)ccc3o2)O1`, the GHS category is reported as 4.

As for `OC1C(Cl)(Cl)C(=C(Cl)Cl)C2(OC2Cl)C1(Cl)Cl` (centres undefined), the GHS category is listed as 4.

`C[Si]1(C)O[Si](C)(C)O[Si](C)(C)O[Si](C)(C)O[Si](C)(C)O[Si](C)(C)O1`: the GHS category is listed as 5.

Regarding `CCCCCCCCC(C)C(C)CCCCCCCC` (centres undefined), the GHS category worked out at 5.

`Cc1cccc(Nc2cc(Cl)nc(SCC(=O)NCCO)n2)c1C` gave a GHS category of 5.

Compound `CC(=O)C(N=Nc1cc(C(=O)Nc2cc(Cl)ccc2C)ccc1Cl)C(=O)Nc1cc(C)c(NC(=O)C(N=Nc2cc(C(=O)Nc3cc(Cl)ccc3C)ccc2Cl)C(C)=O)cc1C` (centres undefined) displayed a GHS category of 5.

In turn, `CC(CC(=O)OCCN1C(C)(C)CC(OC(=O)CC(C)CC(C)(C)C)CC1(C)C)CC(C)(C)C` (centres undefined) gave a GHS category of 5.

Compound `O=C1NC(=O)C(N=NC2C(=O)NC(=O)NC2=O)C(=O)N1` had a GHS category of 5.

Regarding `CC(=O)OC1C=CC(C)=CCC(O)C=CC(C)=CC(NC(=O)C(C)=O)C2(C)C(=O)OC(C1)C(C)C2=O` (centres undefined), the GHS category amounted to 5.

Take `NC(=O)Oc1ccccc1C(=O)Oc1ccccc1Cl`: the GHS category was found to be 5.

`COC1=C(C(=O)O)N2C(=O)[C@@H](NC(=O)[C@H](N)C3=CCC=CC3)[C@H]2SC1` registered a GHS category of 5.

Take `NC(=O)Oc1ccccc1C(=O)Oc1cc(Cl)ccc1Cl`: the GHS category came to 5.

In turn, `CCCCCCCCCCCCCCCCCCCC` displayed a GHS category of 5.

The compound `CC1(C)S[C@@H]2[C@H](N3C(=O)C(c4ccccc4)NC3(C)C)C(=O)N2[C@H]1C(=O)O` (some centres undefined) came in with a GHS category of 5.

Compound `O=C(O)CCCCCCCCCCCCCCCCC(=O)O` returned a GHS category of 5.

Compound `CC(=O)S[C@H]1CC(=O)C=C2C[C@@H](SC(C)=O)[C@@H]3[C@H](CC[C@@]4(C)[C@H]3CC[C@]4(C)O)[C@]21C` yielded a GHS category of 5.

`CCC=CCCOC(=O)C(C)C` displayed a GHS category of 5.

The compound `CCCCCCCCC=CCCCCCCCC(=O)OC(C)C` returned a GHS category of 5.

For `CN(C)Cc1ccccc1Cl`, the GHS category worked out at 4.

Consider `CCOc1nn(-c2cccc(C(F)(F)F)c2)c2ncccc12`, for which the GHS category is recorded as 4.

As to `CC(C)(C)C1CCC(OC(=O)OOC(=O)OC2CCC(C(C)(C)C)CC2)CC1` (centres undefined), the GHS category was determined as 5.

`Oc1cn2c(n1)Nc1ccc(Cl)c(Cl)c1C2` came in with a GHS category of 4.

Compound `CC1N=C(c2ccccc2Cl)c2c(ccc(NC(=O)NCCO)c2Cl)N(C)C1=O` (centres undefined) returned a GHS category of 5.

Compound `CCOCCC(C)CCC=C(C)C` (centres undefined) registered a GHS category of 5.

The compound `CCC(=O)OC(OC(C(=O)O)[P+](=O)CCCCc1ccccc1)C(C)C` (centres undefined) registered a GHS category of 5.

In the case of `CCOc1ccc(Nc2ccc(C(=C3C=CC(=[N+](CC)Cc4cccc(S(=O)(=O)[O-])c4)C=C3C)c3ccc(N(CC)Cc4cccc(S(=O)(=O)O)c4)cc3C)cc2)cc1`, the GHS category amounted to 5.

As for `CC(=O)C(C)O` (centres undefined), the GHS category came to 5.

Compound `CCCc1c(Cc2ccc(-c3ccccc3-c3nn[nH]n3)cc2)c(=O)nc2nc[nH]n12` gave a GHS category of 4.

`CC[C@H](C)[C@H](NC(=O)[C@H](CCC(=O)O)NC(=O)[C@H](CO)NC(=O)[C@@H](NC(=O)[C@@H](N)CO)C(C)C)C(=O)N[C@@H](CCC(N)=O)C(=O)N[C@@H](CC(C)C)C(=O)N[C@@H](CCSC)C(=O)N[C@@H](Cc1cnc[nH]1)C(=O)N[C@@H](CC(N)=O)C(=O)N[C@@H](CC(C)C)C(=O)NCC(=O)N[C@@H](CCCCN)C(=O)N[C@@H](Cc1cnc[nH]1)C(=O)N[C@@H](CC(C)C)C(=O)N[C@@H](CC(N)=O)C(=O)N[C@@H](CO)C(=O)N[C@@H](CCSC)C(=O)N[C@@H](CCC(=O)O)C(=O)N[C@@H](CCCNC(=N)N)C(=O)N[C@H](C(=O)N[C@@H](CCC(=O)O)C(=O)N[C@@H](Cc1c[nH]c2ccccc12)C(=O)N[C@@H](CC(C)C)C(=O)N[C@@H](CCCNC(=N)N)C(=O)N[C@@H](CCCCN)C(=O)N[C@@H](CCCCN)C(=O)N[C@@H](CC(C)C)C(=O)N[C@@H](CCC(N)=O)C(=O)N[C@@H](CC(=O)O)C(=O)N[C@H](C(=O)N[C@@H](Cc1cnc[nH]1)C(=O)N[C@@H](CC(N)=O)C(=O)N[C@@H](Cc1ccccc1)C(=O)O)C(C)C)C(C)C` had a GHS category of 2.

`CCC(=NOC/C=C/Cl)C1=C(O)CC(C2CCOCC2)CC1=O` (centres undefined) gave a GHS category of 5.

For `CCOC(=O)CCC(C)=O`, the GHS category is 5.

In the case of `C=COCCOCCOCCOC=C`, the GHS category is reported as 5.

Regarding `COP(=S)(OC)Oc1ccc(Cl)cc1C#N`, the GHS category came to 4.

On to `Fc1ccc(Oc2ccnc3cc(Cl)cc(Cl)c23)cc1`, for which the GHS category was determined as 5.

The compound `Cn1nnnc1SCCCSc1ccncc1` had a GHS category of 4.

Turning to `CCC(=O)OCC(=O)OC(C)C1CCCC(C)(C)C1` (centres undefined), the GHS category is 5.

Consider `O=C(O)CSCC(=O)NC1CCSC1=O` (centres undefined), for which the GHS category is 5.

On to `CC(C)CCCCCCCCCCCCCCC(=O)O`, for which the GHS category was found to be 5.

For the compound `CNc1ccc(C(C)=O)cc1O`, the GHS category came to 5.

`O=C(O)CCCCCCCC(=O)O` showed a GHS category of 5.

As to `CC1(C)C=C(n2ccccc2=O)c2cc(C#N)ccc2C1=O`, the GHS category was 3.

`CC(=O)O[C@@]12CCC[C@@](C)(CC[C@@H]3[C@@H]1CC3(C)C)C2` had a GHS category of 5.

For `CCCBr`, the GHS category turned out to be 5.

Consider `CCCOc1ccc(-c2ccc(C#N)cc2)cc1`, for which the GHS category was 5.

`CC(=O)Nc1ccccc1CCNC(=O)c1ccc2ccccc2c1O` registered a GHS category of 5.

`CCN(CC)C(=O)CCCn1nnnc1C` returned a GHS category of 4.

Take `O=C1c2ccccc2C(=O)c2ccccc21`: the GHS category worked out at 5.

`CC(C)Cc1ccc(OP(=O)(Oc2ccc(CC(C)C)cc2)Oc2ccc(CC(C)C)cc2)cc1` came in with a GHS category of 5.

As to `CCCOC(=O)C(C(=O)OCCC)=C1SC2C(S1)N(C)CCN2C` (centres undefined), the GHS category amounted to 4.

`COCCNC(=O)c1ccnc(C(=O)NCCOC)c1` registered a GHS category of 5.

In turn, `COc1ccc2c(c1)CCN(c1ccccc1)C2c1ccc(Cl)cc1` (centres undefined) registered a GHS category of 4.

Take `Cc1ccc(-c2c(Cl)nc(C#N)n2S(=O)(=O)N(C)C)cc1`: the GHS category came out at 5.

Consider `CC(C)(N=C=O)c1ccc(C(C)(C)N=C=O)cc1`, for which the GHS category came out at 5.

`CC/C=C\CCOC(=O)Cc1ccccc1` came in with a GHS category of 5.

`CC(C)C1=CC23CCC4C(C)(C(=O)N5CCN(CCO)CC5)CCCC4(C)C2CC1C1C(=O)OC(=O)C13` (centres undefined) had a GHS category of 5.

`C[C@]12C[C@H]3O[C@H]3CC1CCC1C2CC[C@]2(C)C(=O)[C@@H](N3CCCC3)CC12` (some centres undefined) gave a GHS category of 5.

`CCCCCCCCCCCCCC(=O)Nc1ccc(Cc2ccccn2)c([N+](=O)[O-])c1` displayed a GHS category of 3.

In turn, `CN/C(=N\[N+](=O)[O-])NCc1cnc(Cl)s1` yielded a GHS category of 5.

In turn, `CCCCC1OC(C)CC(C)(C)O1` (centres undefined) came in with a GHS category of 5.
